Measurements taken from ChEMBL document CHEMBL1147507, “Preliminary in vitro studies on two potent, water-soluble trimethoprim analogues with exceptional species selectivity against dihydrofolate reductase from Pneumocystis carinii and Mycobacterium avium” (Bioorg Med Chem Lett, 2004).
pIC50: −log10 of the molar value.

Experiments:
[1] = Selectivity index was determined as ratio of IC50 against rat DHFR to that of IC50 against Mycobacterium avium DHFR
Dihydrofolate reductase [2] = biological target: T1, Dihydrofolate reductase (Mycobacterium avium, UniProt O30463)
T1 sequence (O30463 whole entry): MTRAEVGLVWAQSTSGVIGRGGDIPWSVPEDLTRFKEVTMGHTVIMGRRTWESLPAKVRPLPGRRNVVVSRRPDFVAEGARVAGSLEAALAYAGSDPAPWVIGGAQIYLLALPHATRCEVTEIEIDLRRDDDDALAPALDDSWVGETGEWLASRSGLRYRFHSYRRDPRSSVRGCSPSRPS
Description: Inhibitory concentration against Mycobacterium avium dihydrofolate reductase

Dihydrofolate reductase [3] = biological target: T2, Dihydrofolate reductase (Pneumocystis carinii, UniProt P16184)
T2 sequence (P16184 whole entry): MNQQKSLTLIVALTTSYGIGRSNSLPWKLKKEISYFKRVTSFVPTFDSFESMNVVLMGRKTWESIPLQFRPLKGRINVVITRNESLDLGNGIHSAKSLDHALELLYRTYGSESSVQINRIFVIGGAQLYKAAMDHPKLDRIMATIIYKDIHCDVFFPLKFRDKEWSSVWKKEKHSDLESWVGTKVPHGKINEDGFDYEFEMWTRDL
Description: Inhibitory concentration against Pneumocystis carinii dihydrofolate reductase

[4] = biological target: T3, Bifunctional dihydrofolate reductase-thymidylate synthase (Toxoplasma gondii, UniProt Q07422)
T3 sequence (Q07422 whole entry): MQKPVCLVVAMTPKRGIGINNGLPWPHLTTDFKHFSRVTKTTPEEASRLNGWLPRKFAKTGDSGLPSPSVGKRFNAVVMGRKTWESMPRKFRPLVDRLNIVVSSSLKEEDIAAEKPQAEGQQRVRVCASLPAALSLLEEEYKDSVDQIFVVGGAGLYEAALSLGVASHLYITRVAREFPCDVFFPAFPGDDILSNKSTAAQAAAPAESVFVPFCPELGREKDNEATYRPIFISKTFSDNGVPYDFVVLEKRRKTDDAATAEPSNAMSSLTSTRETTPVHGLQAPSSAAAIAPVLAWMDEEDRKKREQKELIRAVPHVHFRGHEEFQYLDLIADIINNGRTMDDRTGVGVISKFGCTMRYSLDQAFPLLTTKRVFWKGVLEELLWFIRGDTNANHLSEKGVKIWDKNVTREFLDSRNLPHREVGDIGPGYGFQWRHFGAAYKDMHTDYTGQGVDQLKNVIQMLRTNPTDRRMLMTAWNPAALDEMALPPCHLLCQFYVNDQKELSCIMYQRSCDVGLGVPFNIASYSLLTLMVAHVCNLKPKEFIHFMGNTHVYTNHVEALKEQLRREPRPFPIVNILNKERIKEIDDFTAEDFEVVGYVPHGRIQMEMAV
Description: Inhibitory concentration against Toxoplasma gondii dihydrofolate reductase

Dihydrofolate reductase [5] = biological target: T4, Dihydrofolate reductase (Rattus norvegicus, UniProt Q920D2)
T4 sequence (Q920D2 whole entry): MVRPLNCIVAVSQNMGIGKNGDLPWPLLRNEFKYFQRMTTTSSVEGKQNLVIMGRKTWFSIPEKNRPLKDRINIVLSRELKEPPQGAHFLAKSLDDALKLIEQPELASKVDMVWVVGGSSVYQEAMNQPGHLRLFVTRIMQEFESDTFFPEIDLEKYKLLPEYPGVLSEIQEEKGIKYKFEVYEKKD
Description: Inhibitory activity against rat dihydrofolate reductase

[6] = Selectivity index was determined as ratio of IC50 against rat DHFR to that of IC50 against Pneumocystis carinii DHFR
[7] = Selectivity index was determined as ratio of IC50 against rat DHFR to that of IC50 against Toxoplasma gondii DHFR

| SMILES | Ratio [1] | pIC50 (Dihydrofolate reductase [2]) | pIC50 (Dihydrofolate reductase [3]) | pIC50 [4] | pIC50 (Dihydrofolate reductase [5]) | Ratio [6] | Ratio [7] |
| --- | --- | --- | --- | --- | --- | --- | --- |
| COc1cc(Cc2cnc(N)nc2N)cc(C#Cc2ccc(C(=O)O)cc2)c1OC | 11000 | 8.09 | 5.92 | 6.38 | 4.06 | 73 | 210 |
| COc1ccc(C#Cc2ccc(C(=O)O)cc2)cc1Cc1cnc(N)nc1N | 2200 | – | – | – | – | 6.3 | 24 |
| COc1cc(Cc2cnc(N)nc2N)cc(C#CCCCC(=O)O)c1OC | – | – | – | – | 5.30 | – | – |
